Consider 1 substance from patent US5688507A, “Methods and compositions for inhibiting thrombogenesis” (Hamilton Civic Hospitals Research Development, Inc., priority 1995, dated 1997).

For one experiment, the system named is fibrin I (desAA fibrin). Kind of experiment: Solid-phase binding of 125I-thrombin to fibrin-coated microtiter wells (ovalbumin-coated wells as non-specific control). Particulars: increasing concentrations, 2 h at 37° C., ovalbumin-well binding subtracted (FIG. 4). On the procedure: To examine the ability of various agents to displace thrombin from fibrin, a solid-phase system was developed wherein fibrin was immobilized on the surface of a microtiter plate well. Radiolabeled thrombin was then bound to the fibrin-coated surface, and after washing, the ability of various agents to displace the bound thrombin was evaluated. In this model, the binding of thrombin to immobilized ovalbumin serves as an index of nonspecific binding. The details of the model are as follows: after adding 100 μl of fibrinogen or ovalbumin (each at a concentration of 1 mg/ml) to the wells of microtiter plate, the plates were incubated for 18 hours at 4° C. The wells were then washed three times with 250 μl aliquots of phosphate buffered saline, pH 7.4, containing 0.1% ovalbumin and 6 mg/ml PEG 8,000 (POP buffer). Based on preliminary studies using radiolabeled fibrinogen or ovalbumin, each well bound 1.3±0.2 μg of fibrinogen, or 1.0±0.1 μg of ovalbumin. […] The reptilase completely converted the immobilized fibrinogen to fibrin I because quantitative amounts of fibrinopeptide A (2 mol fibrinopeptide A/mol of bound fibrinogen) was recovered in the supernatant buffer. […] At the end of the incubation period, the wells were washed three times and then counted to determine the concentration of thrombin bound to the fibrin-coated (+) or ovalbumin-coated (.largecircle.) wells (FIG. 4). […]

The test system of another experiment is fibrin. Particulars: stated without experiment; cited from earlier work.

As for thrombin, the “specific binding to fibrin-coated wells” value in the experiment with fibrin I (desAA fibrin) was “binds to fibrin in a saturable manner”. Moreover, in the experiment on fibrin, the “native binding affinity between fibrin and thrombin in thrombus” value is listed as “about 5×10^-5 M^-1”.
